Test results: article PMC7472354, “Enhanced Antimicrobial Activity of N-Terminal Derivatives of a Novel Brevinin-1 Peptide from The Skin Secretion of Odorrana schmackeri” (Toxins, 2020)
≈ marks a conversion by molar mass, not a printed value. Where a SMILES comes first, the peptide text is derived from it.

Columns and labels:
[1] = system: Candida albicans (NCPF 1467); format: cell-based
Experimental: (§1) The minimal inhibitory concentrations (MICs) and minimum bactericidal concentrations (MBCs) were evaluated to determine the antimicrobial activity of synthetic peptides. The microorganisms employed in the study are two kinds of Gram-negative bacteria, Escherichia coli (NCTC 10418) and Pseudomonas aeruginosa (ATCC 27853), three kinds of Gram-positive bacteria, Staphylococcus aureus (NCTC 10788), Methicillin-resistant Staphylococcus aureus (MRSA, ATCC 12493) and Enterococcus faecalis (NCTC 12697) and a yeast, Candida albicans (NCPF 1467), as indicated previously. […] The sterilised broth medium was used as the positive control and the microorganism cultured in the medium only was treated as the negative control. […] The MBC results were defined as the lowest bactericidal concentrations of peptide. The antimicrobial activity of peptides was tested by monitoring the absorbance at 550 nm using an ELISA plate reader (Biolise BioTek EL808, Winooski, VT, USA).

[2] = system: Enterococcus faecalis (NCTC 12697); format: cell-based
Experimental: as §1

[3] = system: Escherichia coli (NCTC 10418); format: cell-based
Experimental: as §1

[4] = system: Methicillin-resistant Staphylococcus aureus (MRSA, ATCC 12493); format: cell-based
Experimental: as §1

[5] = system: Pseudomonas aeruginosa (ATCC 27853); format: cell-based
Experimental: as §1

[6] = system: Staphylococcus aureus (NCTC 10788); format: cell-based
Experimental: as §1

horse red blood cells = assay: Haemolysis assay and therapeutic index; details: 2% horse red blood cells in PBS, 2 h, 37 °C, absorbance 570 nm; best-fitted curve
Experimental: The haemolytic activity of synthetic peptides was determined using the horse red blood cells that were extracted from the de-fibroblast whole horse blood (TCS Biosciences Ltd. Buckingham, UK). […] Briefly, the red blood cells were harvested and washed using PBS until all broken red blood cells were removed. Then, a 2% cell suspension was prepared using PBS. The peptide concentrations were set as antimicrobial activity assay and mixed with the red blood cells in the microcentrifuge tubes. After a 2 h-incubation at 37 °C, the tubes were centrifuged and the suspension was transferred into a clear 96 well plate. The absorbance of released haemoglobin in the suspension was detected at 570 nm by a plate reader. Besides, the red blood cells treated with PBS and 1% Triton X-100 were used as the negative and positive controls, respectively. […] The therapeutic index (TI) was further determined as below:(1) TI=HC50/product of n MICsn,

[7] = system: Galleria mellonella larvae; assay: Toxicity to uninfected Galleria mellonella larvae; format: in vivo; details: uninfected G. mellonella larvae injected with drug; n = 30 per group; vancomycin 20 mg/kg
Experimental: The in vivo study of antimicrobial activity of the peptides was evaluated using the larvae of Galleria mellonella, which was described in the previous study with minor modifications. The larvae of Galleria mellonella (250 ± 25 mg; Livefood UK Ltd., Rooks Bridge, UK) were selected. The MRSA culture was prepared the same way as the antimicrobial activity assay. Then, MRSA cells were collected and washed, and further diluted to 10^8 CFU/mL in the saline. Ten µL of MRSA suspension was injected to the larvae and placed in a petri dish. After 2 h, the MRSA infected larvae were administrated with 10 µL of peptides (25 mg/kg, 50 mg/kg) by injection. Saline and vancomycin (20 mg/kg) (Sigma-Aldrich, UK) were used as the negative control and positive control, respectively. Each sample group contained 10 larvae, and the experiment was repeated three times (30 larvae for each group in total). The survival curves were achieved using Prism (Version 6.0; GraphPad Software Inc., San Diego, CA, USA) and the log-rank test was employed to analyze the significance between the different treatments and the controls. * (p < 0.05), ** (p < 0.01) and *** (p < 0.001) represent statistical significance.
Figure A9 Larvae without any MRSA infection were injected with peptides and vancomycin respectively to access the cytotoxicity of the drugs to larvae bodies. […] Effect of treatment of G. mellonella larvae (n = 30 for each group) without any infection and only treated with 5 µL vancomycin (20 mg/kg), OSd, OSe and OSf.

Row | MIC ([1]; NCPF 1467, 24 h) [µM] | MIC ([2]; NCTC 12697, 24 h) [µM] | MIC ([3]; NCTC 10418, 24 h) [µM] | MIC ([4]; ATCC 12493, 24 h) [µM] | MIC ([5]; ATCC 27853, 24 h) [µM] | MIC ([6]; NCTC 10788, 24 h) [µM] | SMILES | MBC ([1]; NCPF 1467, 18 h) [µM] | MBC ([2]; NCTC 12697, 18 h) [µM] | MBC ([3]; NCTC 10418, 18 h) [µM] | MBC ([4]; ATCC 12493, 18 h) [µM] | MBC ([5]; ATCC 27853, 18 h) [µM] | MBC ([6]; NCTC 10788, 18 h) [µM] | HC50 (concentration causing 50% haemolysis of the red blood cells) (horse red blood cells) [µM] | toxicity to larvae without MRSA infection [7]
1 | 512 (≈ 592 µg/mL) | > 512 | > 512 | > 512 | > 512 | 256 (≈ 296 µg/mL) | CC[C@H](C)[C@H](NC(=O)CNC(=O)[C@@H]1CCCN1C(=O)[C@H](CC(C)C)NC(=O)[C@@H](N)Cc1ccccc1)C(=O)N[C@@H](CC(C)C)C(=O)N[C@@H](CCCCN)C(=O)N[C@H](C(=O)N[C@@H](C)C(=O)N[C@@H](C)C(=O)N[C@@H](CCCCN)C(N)=O)C(C)C [OSb] (H-FLPGILKVAAK-NH2) | > 512 | > 512 | > 512 | > 512 | > 512 | > 512 | 381.4 | 
2 |  |  |  |  |  |  | CN[C@H](CC(C)C)C(=O)N[C@H]1C(=O)N[C@@H](CC(N)=O)C(=O)N[C@H]2C(=O)N[C@H]3C(=O)N[C@H](C(=O)N[C@H](C(=O)O)c4cc(O)cc(O)c4-c4cc3ccc4O)[C@H](O)c3ccc(c(Cl)c3)Oc3cc2cc(c3O[C@@H]2O[C@H](CO)[C@@H](O)[C@H](O)[C@H]2O[C@H]2C[C@](C)(N)[C@H](O)[C@H](C)O2)Oc2ccc(cc2Cl)[C@H]1O [vancomycin, reference compound] |  |  |  |  |  |  |  | No noticeable cytotoxicity
